Data set [1] concerns Trop2 positive SKBR-3 cells. Description: Antibody mediated internalization in Trop2 expressing tumor cells, FACS. It counts as cell-based. To be noted: 100 nM. As for the experimental part:
The Trop2 positive cell line SKBR-3 cells (Breast cancer, ATCC No. HTB30) were used for the following internalization assay. The culture conditions are the same as in Example 21.
(§1) Cells were harvested with 0.25% Trysin/EDTA (T1320, Solarbio) and adjusted the cell concentration to 4×10^6 cells/mL with 1×PBS containing 1% FBS buffer. 100 μL cells per well were then plated in the 96-well cell culture plates and incubated with Trop2 antibodies Trop2-1, Trop2-2, Datopotamab, and Sacituzumab, as well as exemplary anti-Trop2 ADCs (ADC-4, ADC-5, ADC-6, ADC-7, ADC-8 and ADC-9) at final concentration 100 nM for seven time points (0, 0.5, 2, 4, 8, 16, and 24 hours). The mixtures were incubated at 4° C. in an atmosphere of 5% CO2 in air. At specific time points, cells were immediately washed twice and suspended in 100 μL cold wash buffer containing 2% paraformaldehyde for 30 mins. Cells were washed twice and then incubated with 1×PE anti-human IgG Fc Antibody (Cat. No. 366904, Biolegend) at 4° C. and 5% CO2 for another one hour. After the two-step washing by washing buffer, cells were re-suspended in 100 μL FACS buffer, CytoFlex Cytometry (Beckman Coulter) was used to detect the fluorescent signals of cells. The internalization ratio at several time points were calculated as the missing rate of MFI values at specific time point in that at 0 hours. Curves of internalization rate versus incubation time (hours) were plotted with the Graphpad Prism Software.

A further data set concerns SKBR-3 cells. Put plainly: In vitro cytotoxic assay of anti-Trop2 ADCs (CellTiter-Glo). To be noted: for Bottom (%): curve fit bottom; for Top (%): curve fit top. It counts as cell-based. On the procedure: (§2) In brief, 5,000 cells/well were platted in white clear 96-well assay plates (Cat. No. 6005182, PerkinElmer) (excluding edge wells, which contained medium only) in 90 μL basic culture medium (McCoy's 5a medium for SKBR-3 cells, RPMI-1640 medium for NCI-N87 cells, EMEM medium for MCF-7 cells, and Leibovitz's L-15 medium for MDA-MB-468 cells) containing 10% FBS, I % Penicillin-Streptomycin Solution (BL505A, Biosharp Life Sciences), and 2 mM L-Glutamine (Cat. No. 25030081, ThermoFisher) and were grown at 37° C. in a humidified incubator at 5% CO2 atmosphere. […] After additional 72-hour incubation, plates were removed from incubator and equilibrated to room temperature. After approximately 30 mins, 50 μL of CellTiter-Glo® 2.0 Luminescent Cell Viability Reagent (Cat. No. G7573, Promega) were added to each well. After shaking the plates at 450 rpm for 3 mins followed by 10-min incubation without shaking, luminescence was measure on the Envision plate reader (Equipment No. 2104, PerkinElmer) with integration time of 250 ms per well. Curves of luminescence versus ADC concentration (μM) were fitted with GraphPad Prism Software.
(In ATP-based viability assays light output follows the ATP content of the culture.)

Another data set has as its system MCF-7 cells. The data set is described as above. It counts as cell-based. Particulars: for Bottom (%): curve fit bottom. As for the experimental part:
as §2

In data set [2] the test system is SKBR-3, NCI-N87, MCF-7, and MDA-MB-468 cells. Description: In vitro cytotoxic assays of anti-Trop2 ADCs, statements on all test cell lines. It counts as cell-based. Particulars: four Trop-2 expressing cell lines, FIG. 6. On the procedure: Cytotoxicity of exemplary free linker-payloads (Compounds 2, 3 and 4), free Trop2 antibodies (Trop2-1, Trop2-2, Datopotamab, and Sacituzumab), exemplary anti-Trop2 ADCs (ADC-4, ADC-5, ADC-6, ADC-7, ADC-8 and ADC-9) and Trodelvy (an anti-Trop2 ADC approved by FDA) as positive control was evaluated on SKBR-3 cells (Breast cancer, ATCC No. HTB30), NCI-N87 cells (Gastric cancer, ATCC No. CRL-5822), MCF-7 cells (Breast cancer, ATCC No. HTB-22), and MDA-MB-468 cells (Breast cancer, ATCC No. HTB-132).
as §2, with “After” for “After additional 72-hour incubation, plates were removed from incubator and equilibrated to room temperature. After approximately 30 mins, 50 μL of CellTiter-Glo® 2.0 Luminescent Cell Viability Reagent (Cat. No. G7573, Promega) were added to each well. After”

For data set [3], the system named is HER2 positive SKBR-3 cells. Put plainly: Antibody mediated internalization in HER2 expressing tumor cells, FACS. It counts as cell-based. Particulars: 100 nM. As for the experimental part: (§3) The culture conditions of two cell lines are the same as in Example 18.
as §1, with “(Tl 320,” for “(T1320,”, “100 μL cells per well were then plated in the 96-well cell culture plates and incubated with Trop2 antibodies Trop2-1, Trop2-2, Datopotamab, and Sacituzumab, as well as exemplary anti-Trop2 ADCs (ADC-4, ADC-5, ADC-6, ADC-7, ADC-8 and ADC-9) at final concentration 100 nM for seven time points (0, 0.5, 2, 4, 8, 16, and 24 hours).” left out, “median fluorescence intensity (MFI)” for “MFI”

For data set [4], the system named is HER2 positive NCI-N87 cells. The data set is described as above. Format: cell-based. Particulars: 100 nM. On the procedure:
as §3
as §1, with “(Tl 320,” for “(T1320,”, “100 μL cells per well were then plated in the 96-well cell culture plates and incubated with Trop2 antibodies Trop2-1, Trop2-2, Datopotamab, and Sacituzumab, as well as exemplary anti-Trop2 ADCs (ADC-4, ADC-5, ADC-6, ADC-7, ADC-8 and ADC-9) at final concentration 100 nM for seven time points (0, 0.5, 2, 4, 8, 16, and 24 hours).” left out, “median fluorescence intensity (MFI)” for “MFI”

A further data set relates to NCI-N87 cell xenograft. Put plainly: In vivo therapeutic efficacy in NCI-N87 cell xenograft mouse model. The arrangement: species or system BALB/c female nude mice. Particulars: 5 mg/kg, IV, BIW*3. On the procedure: On day 0, NCI-N87 cells (1×10^7 with 1:1 Matrigel) suspended in 0.2 mL PBS supplement with 50% (v/v) matrigel were injected subcutaneously in the right upper flank of 6- to 8-wk-old BALB/c female nude mice (purchased from Beijing Vital River Laboratory Animal Technology Co., Ltd). On day 6, mice were randomized to 8 groups (n=6) when the average tumor volume was 178 mm^3. Treatments were initiated on the very same day (defined as PG-D0). Mice at Trodelvy group received 5.0 mg/kg (i.v., BIW) for 3 wk; mice at the ADC-5 treatment groups were injected with 1.0, 2.5, and 5.0 mg/kg (i.v., BIW) ADC-5 for 3 wk; mice at ADC-6 treatment groups were injected (i.v.) with 1.0 and 2.5 mg/kg ADC-6 weekly (QW) for three doses, or 5.0 mg/kg (single dose at day PG-D0). The tumor volumes and body weights were measured and recorded twice a week. On the termination day 28 (defined as PG-D28), tumor weight were dissected and measured. Tumor growth inhibition rate (%) was calculated as (TVCR−TVTR)/TVCR (%), where TVCR and TVTR are the relative tumor volumes of the vehicle control group and the experimental groups, respectively. Mice were euthanized and deemed to have succumbed to disease once tumors grew greater than 2,500 mm^3. GraphPad Prism 6.0 Software was used for statistical analysis with a one-way ANOVA.

A further data set has as its system MDA-MB-468 cells. Description: In vitro cytotoxic assay of anti-Trop2 ADCs (CellTiter-Glo). It counts as cell-based. On the procedure: as §2
The subject of the next data set is NCI-N87 cells. The data set is described as above. Format: cell-based. As for the experimental part:
as §2

The mark [5] stands for this setting: 72-hour incubation, read-out: ReIC50.

Consider Sacituzumab: free Trop2 antibody, for which the “MFI value of internalization assay” value in data set [1] (0 h) is on record as 216386; in [1] (0.5 h) it was 205198.9; in data set [1] (2 h), 90975.5; in data set [1] (4 h), 75749.9; in data set [1] (8 h), 47695.7; in data set [1] (16 h) it was 33528.1. Besides, the “MFI value of internalization assay” value in data set [1] (24 h) is listed as 32475. For the same molecule, the results for the “Bottom (%)” value in the data set on SKBR-3 cells and in the data set with MCF-7 cells were 3.225% and 0%, respectively. The “Top (%)” value with SKBR-3 cells was 9.741%. For the same molecule, the “cytotoxic activity on the test cell lines” value in [2] was “no target cell killing effect”.

Regarding T-DM1, the “MFI value of internalization assay” value in data set [3] (0 h) is on record as 89030.9; in data set [3] (0.5 h) it was 54683.9; in data set [3] (2 h), 51777.7; in [3] (4 h), 39019.6; in data set [3] (8 h), 31583.1; in data set [3] (16 h), 29393.7. Further, the “MFI value of internalization assay” value in data set [3] (24 h) was 20671.3; in data set [4] (0 h) it was 455385; in data set [4] (0.5 h), 452742.7; in [4] (2 h), 475100.1; in [4] (4 h) it was 369328.5; in data set [4] (8 h) it was 345220.2. The figures for the “MFI value of internalization assay” value in [4] (16 h) and in data set [4] (24 h) were 362105.3 and 317532.7, respectively.

On to Trodelvy, for which the “TGI (%) in days after administration, Day 3” value in the data set on NCI-N87 cell xenograft (Day 3) amounted to 44.83%. For the same molecule, the “TGI (%) in days after administration, Day 7” value with NCI-N87 cell xenograft (Day 7) came to 44.43%. Further, the “TGI (%) in days after administration, Day 10” value with NCI-N87 cell xenograft (Day 10) was 39.67%. Besides, the “TGI (%) in days after administration, Day 14” value in the data set with NCI-N87 cell xenograft (Day 14) is 42.59%. Further, the “TGI (%) in days after administration, Day 17” value in the data set with NCI-N87 cell xenograft (Day 17) stood at 49.05%. In addition, in the data set on NCI-N87 cell xenograft (Day 21), the “TGI (%) in days after administration, Day 21” value worked out at 55.07%. The “TGI (%) in days after administration, Day 24” value in the data set on NCI-N87 cell xenograft (Day 24) is recorded as 55.32%. The “TGI (%) in days after administration, Day 28” value in the data set on NCI-N87 cell xenograft (Day 28) turned out to be 54.53%. Further, the IC50 worked out at 0.846 nM in the data set with SKBR-3 cells (setting [5]), 2.33 nM in the data set on MDA-MB-468 cells (setting [5]), 5.39 nM in the data set with NCI-N87 cells (setting [5]) and 40.5 nM with MCF-7 cells (setting [5]). Further, the “Bottom (%)” value with SKBR-3 cells, in the data set on MDA-MB-468 cells (curve fit bottom), in the data set with NCI-N87 cells (curve fit bottom) and in the data set on MCF-7 cells was 0% in each case. In addition, the “Top (%)” value is 78.16% with SKBR-3 cells, 79.13% with MDA-MB-468 cells (curve fit top), 76.68% in the data set with NCI-N87 cells (curve fit top) and 35.94% in the data set on MCF-7 cells (curve fit top).

B1: Datopotamab: native human IgG1 antibody of DS-1062 from Daiichi Sankyo, free antibody control (antibody, chains of the INN, looked up, V domains shown)
VH: QVQLVQSGAEVKKPGASVKVSCKASGYTFTTAGMQWVRQAPGQGLEWMGWINTHSGVPKYAEDFKGRVTISADTSTSTAYLQLSSLKSEDTAVYYCARSGFGSSYWYFDVWGQGTLVTVSS
VL: DIQMTQSPSSLSASVGDRVTITCKASQDVSTAVAWYQQKPGKAPKLLIYSASYRYTGVPSRFSGSGSGTDFTLTISSLQPEDFAVYYCQQHYITPLTFGQGTKLEIK
B1: the “MFI value of internalization assay” value is 237324.4 in [1] (0 h); 112896.1 in data set [1] (0.5 h); 41192.3 in data set [1] (2 h); 33418.6 in data set [1] (4 h); 19928.3 in [1] (8 h); 14134.9 in data set [1] (16 h). Also, in data set [1] (24 h), the “MFI value of internalization assay” value amounted to 8497.3.

(Values after US20250205356A1, “POLYMER-DRUG CONJUGATES” (PRIMELINK BIOTHERAPEUTICS (SHENZHEN) CO., LTD, priority 2022, published 2025).)
